Reference: patent publication US8193167B2, “Pharmacologically active agents containing esterified phosphonates and methods for use thereof” (priority 2004, dated 2012)
Structures can show the parent of a compound that is named as a salt. Where two headings read alike, the source gives them in different places.

What was measured:
[1] = system: Cowpox Brighton; test: microbe, parasite or virus in culture; format: cell-based, cowpox virus (CV); conditions: read-out: Cowpox Brighton EC50
[2] = system: human foreskin fibroblast (HFF) cells
[3] = system: Vaccinia Copenhagen; test: microbe, parasite or virus in culture; format: cell-based, vaccinia virus (VV); conditions: read-out: Vaccinia Copenhagen EC50
[4] = system: HCMV strain AD-169; test: Plaque reduction assay for antiviral activity, HCMV in HFF cells; format: cell-based; conditions: read-out: HCMV EC50
[5] = system: MCMV strain Smith; test: Plaque reduction assay for antiviral activity, MCMV in MEF cells; format: cell-based; conditions: read-out: MCMV EC50
[6] = in vitro; conditions: human
[7] = HFF cells, 8-day incubation, value without SD = single determination

| SMILES | EC50 [1] [nM] | CC50 [2] [nM] | EC50 [3] [nM] | EC50 [4, 7] [nM] | EC50 ([5]; MEF cells, 7-day incubation) [nM] | further results |
| --- | --- | --- | --- | --- | --- | --- |
| CCCCCCCCOP(=O)(O)CO[C@H](CO)Cn1ccc(N)nc1=O [O-CDV, Octyl Cidofovir, Sodium Salt] | > 20000 | > 100000 | > 20000 | 5250 ± 5700 | > 10000 |  |
| CCCCCCCCCCCCCCCCCCCCCCCCOP1(=O)CO[C@@H](Cn2ccc(N)nc2=O)CO1 (some centres unmarked) [TC-cCDV, Tetracosyl Cyclic Cidofovir] |  | > 100000 |  | 320 | 2300 ± 1300 |  |
| CCCCCCCCCCCCCCCCCCCCCCOP1(=O)COC(Cn2ccc(N)nc2=O)CO1 (mixture of isomers) [DC-cCDV, Docosyl Cyclic Cidofovir] |  | > 100000 |  | 32 | 2800 ± 1700 |  |
| CCCCCCCCCCCCCCCCOP(=O)(O)COC(CO)Cn1ccc(N)nc1=O (centres unmarked) [HD-CDV, Hexadecyl Cidofovir, Sodium Salt] | 6000 ± 2000 | > 157000 | 3100 ± 100 | 5 | 20 |  |
| Nc1ccn(C[C@@H](CO)OCP(=O)(O)O)c(=O)n1 [CDV, Cidofovir, reference compound] |  |  |  |  |  | EC50 ([1]; Cowpox virus, HFF): 42000 ± 5400 nM; CC50 [6]: > 317000 nM; EC50 ([3]; Orthopoxvirus vaccinia, HFF): 31000 ± 5400 nM; EC50 ([4]; Human betaherpesvirus 5, AD169, HFF, 192 h): 1200 ± 430 nM; EC50 ([5]; MEF, 168 h): 40 ± 30 nM |
| Nc1ccn(C[C@H]2COP(=O)(O)CO2)c(=O)n1 [cCDV, Cyclic Cidofovir, reference compound] |  |  |  |  |  | CC50 [6]: > 331000 nM; EC50 ([4]; Human betaherpesvirus 5, AD169, 192 h, HFF cells, 8-day incubation, value without SD = single determination): 3100 ± 1800 nM; EC50 ([5]; 168 h, MEF cells, 7-day incubation): 230 ± 70 nM |
| CCCCCCCCCCCCCCCCCCCCCCOP(=O)(O)COC(CO)Cn1ccc(N)nc1=O (centres unmarked) [DC-CDV, Docosyl Cidofovir, Sodium Salt] |  | 79600 |  | 4 | 850 ± 7 |  |
| CCCCCCCCCCCCCCCCCCCCOP(=O)(O)CO[C@H](CO)Cn1ccc(N)nc1=O [EC-CDV, Eicosyl Cidofovir, Sodium Salt] | 1500 ± 900 |  | 1600 ± 1300 | 0.7 | 5 |  |
| CCCCCCCCCCCCCCCCCCCCCCCCOP(=O)(O)CO[C@H](CO)Cn1ccc(N)nc1=O [TC-CDV, Tetracosyl Cidofovir, Sodium Salt] | > 20000 | > 100000 | > 17000 | 6 | 7450 ± 640 |  |
| CCCCCCCCCCCCOP(=O)(O)CO[C@H](CO)Cn1ccc(N)nc1=O [DD-CDV, Dodecyl Cidofovir, Sodium Salt] | > 20000 | > 100000 | > 20000 | 310 ± 190 | > 10000 |  |
| CCCCCCCCCCCCCCCCOP1(=O)COC(Cn2ccc(N)nc2=O)CO1 (mixture of isomers) [HD-cCDV, Hexadecyl Cyclic Cidofovir] |  | 83000 ± 20000 |  | 3100 ± 2350 | 130 ± 10 |  |
| CCCCCCCCCCCCCCCCCCCCOP1(=O)CO[C@@H](Cn2ccc(N)nc2=O)CO1 (some centres unmarked) [EC-cCDV, Eicosyl Cyclic Cidofovir] |  | 86100 |  | 11 | 230 ± 10 |  |
